These are literature values, as cited in US20080287519A1, “Amorphous eletriptan hydrobromide and process for preparing it and other forms of eletriptan hydrobromide” (priority 2007, published 2008).

Among the targets are 5-HT1B receptor (Homo sapiens, UniProt P28222); 5-HT1D receptor (Homo sapiens, UniProt P28221); 5-HT1E receptor (Homo sapiens, UniProt P28566); 5-HT2B receptor (Homo sapiens, UniProt P41595); 5-HT7 receptor (Homo sapiens, UniProt P34969); 5-HT2A receptor (Homo sapiens, UniProt P28223); 5-HT4 receptor (Homo sapiens, UniProt Q13639); 5-HT5A receptor (Homo sapiens, UniProt P47898); 5-HT6 receptor (Homo sapiens, UniProt P50406).

In another data set the target is T1, 5-HT1F receptor (Homo sapiens, UniProt P30939).
T1 sequence (P30939 1-366): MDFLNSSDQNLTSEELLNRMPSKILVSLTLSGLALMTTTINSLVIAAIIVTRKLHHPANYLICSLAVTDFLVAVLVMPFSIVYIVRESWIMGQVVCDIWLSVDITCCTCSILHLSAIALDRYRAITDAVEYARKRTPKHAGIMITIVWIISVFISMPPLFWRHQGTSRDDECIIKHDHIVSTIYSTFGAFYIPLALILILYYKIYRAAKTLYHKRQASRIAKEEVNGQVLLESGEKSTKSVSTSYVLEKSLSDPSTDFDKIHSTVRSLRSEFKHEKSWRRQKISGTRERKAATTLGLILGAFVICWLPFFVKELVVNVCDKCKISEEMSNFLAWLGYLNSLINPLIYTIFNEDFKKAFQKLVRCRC

A further data set concerns the target T2, 5-HT1A receptor (Homo sapiens, UniProt P08908).
T2 sequence (P08908 1-422): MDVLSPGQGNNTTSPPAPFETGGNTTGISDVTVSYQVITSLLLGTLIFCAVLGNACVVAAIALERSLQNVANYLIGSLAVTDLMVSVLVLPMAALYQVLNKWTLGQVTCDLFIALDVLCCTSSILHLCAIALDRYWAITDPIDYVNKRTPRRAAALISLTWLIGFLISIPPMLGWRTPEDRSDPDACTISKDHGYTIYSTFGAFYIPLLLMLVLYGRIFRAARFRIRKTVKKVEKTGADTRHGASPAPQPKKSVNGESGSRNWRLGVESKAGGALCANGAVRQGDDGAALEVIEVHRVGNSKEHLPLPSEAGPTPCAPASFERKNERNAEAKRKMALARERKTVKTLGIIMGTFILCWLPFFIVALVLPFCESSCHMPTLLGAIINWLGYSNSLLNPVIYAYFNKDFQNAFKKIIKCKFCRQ

In a further data set the target is T3, 5-HT2C receptor (Homo sapiens, UniProt P28335).
T3 sequence (P28335 33-458): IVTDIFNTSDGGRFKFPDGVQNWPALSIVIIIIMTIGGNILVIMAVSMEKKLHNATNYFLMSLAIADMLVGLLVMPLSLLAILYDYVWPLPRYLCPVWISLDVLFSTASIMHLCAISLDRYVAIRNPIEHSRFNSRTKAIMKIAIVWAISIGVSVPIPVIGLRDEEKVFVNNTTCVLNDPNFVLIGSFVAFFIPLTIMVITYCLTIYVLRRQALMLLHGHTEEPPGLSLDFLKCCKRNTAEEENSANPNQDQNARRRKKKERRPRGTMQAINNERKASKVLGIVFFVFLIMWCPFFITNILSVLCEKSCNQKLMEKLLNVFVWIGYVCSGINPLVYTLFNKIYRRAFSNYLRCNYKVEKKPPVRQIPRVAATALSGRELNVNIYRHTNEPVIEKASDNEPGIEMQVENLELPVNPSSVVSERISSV

In data set [1] the test system is adrenergic alpha1 receptors.
Data set [2] deals with adrenergic alpha2 receptors.
The subject of data set [3] is adrenergic beta receptors.
Data set [4] has as its target dopaminergic D1 receptors (Homo sapiens, UniProt P21728).
The target in data set [5] is dopaminergic D2 receptors (Homo sapiens, UniProt P14416).
Sequence of dopaminergic D2 receptors (P14416 whole entry): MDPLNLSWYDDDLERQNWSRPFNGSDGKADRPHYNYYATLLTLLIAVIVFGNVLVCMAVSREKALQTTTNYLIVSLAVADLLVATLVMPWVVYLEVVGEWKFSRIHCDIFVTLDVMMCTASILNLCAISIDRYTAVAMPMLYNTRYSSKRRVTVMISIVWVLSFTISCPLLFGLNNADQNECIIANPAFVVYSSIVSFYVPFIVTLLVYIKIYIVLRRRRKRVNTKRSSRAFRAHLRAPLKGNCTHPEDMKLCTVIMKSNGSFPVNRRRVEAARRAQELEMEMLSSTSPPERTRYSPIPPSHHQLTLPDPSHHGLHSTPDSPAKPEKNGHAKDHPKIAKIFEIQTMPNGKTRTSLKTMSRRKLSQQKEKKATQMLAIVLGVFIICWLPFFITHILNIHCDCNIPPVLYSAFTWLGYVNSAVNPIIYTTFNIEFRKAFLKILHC

Sequence of 5-HT1D receptor (P28221 whole entry): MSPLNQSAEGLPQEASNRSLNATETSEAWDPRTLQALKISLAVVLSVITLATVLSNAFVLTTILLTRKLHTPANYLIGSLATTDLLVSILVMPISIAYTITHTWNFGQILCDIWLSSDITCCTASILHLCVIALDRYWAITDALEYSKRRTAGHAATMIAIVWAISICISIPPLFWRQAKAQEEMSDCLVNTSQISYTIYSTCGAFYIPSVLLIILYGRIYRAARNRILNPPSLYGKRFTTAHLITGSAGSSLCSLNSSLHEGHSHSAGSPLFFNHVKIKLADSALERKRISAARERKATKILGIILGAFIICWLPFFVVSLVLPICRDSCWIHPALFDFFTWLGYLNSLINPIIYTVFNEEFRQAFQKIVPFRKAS
Sequence of 5-HT5A receptor (P47898 whole entry): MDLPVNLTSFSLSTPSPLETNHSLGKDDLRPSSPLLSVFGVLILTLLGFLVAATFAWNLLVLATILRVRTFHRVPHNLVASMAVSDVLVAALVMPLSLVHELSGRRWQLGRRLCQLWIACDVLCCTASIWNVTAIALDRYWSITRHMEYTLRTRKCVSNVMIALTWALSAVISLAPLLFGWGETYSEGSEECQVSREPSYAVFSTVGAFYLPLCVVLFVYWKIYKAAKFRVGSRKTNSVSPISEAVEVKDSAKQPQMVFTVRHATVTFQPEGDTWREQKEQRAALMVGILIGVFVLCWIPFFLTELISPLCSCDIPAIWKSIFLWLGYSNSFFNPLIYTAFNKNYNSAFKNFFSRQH
Sequence of dopaminergic D1 receptors (P21728 whole entry): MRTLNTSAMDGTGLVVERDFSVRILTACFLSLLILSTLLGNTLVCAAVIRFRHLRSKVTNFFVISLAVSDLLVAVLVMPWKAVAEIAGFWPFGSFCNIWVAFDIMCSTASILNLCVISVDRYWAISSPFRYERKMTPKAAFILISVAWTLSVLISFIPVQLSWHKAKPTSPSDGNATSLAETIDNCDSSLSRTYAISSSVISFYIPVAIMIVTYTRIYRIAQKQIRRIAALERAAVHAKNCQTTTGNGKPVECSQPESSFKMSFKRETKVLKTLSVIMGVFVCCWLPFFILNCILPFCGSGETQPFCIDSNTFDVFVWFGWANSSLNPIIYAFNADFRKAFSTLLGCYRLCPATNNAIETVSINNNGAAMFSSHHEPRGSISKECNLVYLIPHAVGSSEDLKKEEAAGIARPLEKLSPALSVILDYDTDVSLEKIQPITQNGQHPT
Sequence of 5-HT4 receptor (Q13639 whole entry): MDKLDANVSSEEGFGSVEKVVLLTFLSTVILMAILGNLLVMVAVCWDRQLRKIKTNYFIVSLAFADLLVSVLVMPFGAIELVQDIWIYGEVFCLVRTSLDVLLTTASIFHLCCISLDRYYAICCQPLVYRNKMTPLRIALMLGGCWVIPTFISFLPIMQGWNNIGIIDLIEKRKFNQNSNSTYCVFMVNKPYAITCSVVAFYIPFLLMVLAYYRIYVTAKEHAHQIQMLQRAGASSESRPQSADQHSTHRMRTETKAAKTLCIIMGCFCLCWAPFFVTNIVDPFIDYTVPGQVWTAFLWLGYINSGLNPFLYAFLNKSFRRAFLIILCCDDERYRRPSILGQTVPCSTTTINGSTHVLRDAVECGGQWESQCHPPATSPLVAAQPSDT
Sequence of 5-HT2A receptor (P28223 whole entry): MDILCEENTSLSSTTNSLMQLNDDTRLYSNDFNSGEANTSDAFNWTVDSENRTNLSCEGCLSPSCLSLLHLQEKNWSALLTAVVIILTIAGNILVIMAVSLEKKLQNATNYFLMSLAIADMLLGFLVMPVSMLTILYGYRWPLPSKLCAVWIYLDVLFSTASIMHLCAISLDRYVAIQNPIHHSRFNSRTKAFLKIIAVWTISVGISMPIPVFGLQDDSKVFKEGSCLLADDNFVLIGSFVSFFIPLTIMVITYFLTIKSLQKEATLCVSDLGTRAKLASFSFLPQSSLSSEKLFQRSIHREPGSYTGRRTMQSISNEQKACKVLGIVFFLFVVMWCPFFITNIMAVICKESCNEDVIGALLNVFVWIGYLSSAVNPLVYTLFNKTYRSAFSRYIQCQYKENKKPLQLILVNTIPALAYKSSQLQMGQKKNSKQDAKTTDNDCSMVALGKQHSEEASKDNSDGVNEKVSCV
Sequence of 5-HT1E receptor (P28566 whole entry): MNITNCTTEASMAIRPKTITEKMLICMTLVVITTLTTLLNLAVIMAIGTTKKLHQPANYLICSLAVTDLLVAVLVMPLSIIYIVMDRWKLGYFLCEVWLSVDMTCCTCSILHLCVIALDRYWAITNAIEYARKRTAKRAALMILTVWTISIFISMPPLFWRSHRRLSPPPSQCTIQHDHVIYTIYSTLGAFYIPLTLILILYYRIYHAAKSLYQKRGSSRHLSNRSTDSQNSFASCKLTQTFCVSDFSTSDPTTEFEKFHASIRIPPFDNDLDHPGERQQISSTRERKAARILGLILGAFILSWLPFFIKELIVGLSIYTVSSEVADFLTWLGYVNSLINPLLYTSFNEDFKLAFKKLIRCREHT
Sequence of 5-HT2B receptor (P41595 whole entry): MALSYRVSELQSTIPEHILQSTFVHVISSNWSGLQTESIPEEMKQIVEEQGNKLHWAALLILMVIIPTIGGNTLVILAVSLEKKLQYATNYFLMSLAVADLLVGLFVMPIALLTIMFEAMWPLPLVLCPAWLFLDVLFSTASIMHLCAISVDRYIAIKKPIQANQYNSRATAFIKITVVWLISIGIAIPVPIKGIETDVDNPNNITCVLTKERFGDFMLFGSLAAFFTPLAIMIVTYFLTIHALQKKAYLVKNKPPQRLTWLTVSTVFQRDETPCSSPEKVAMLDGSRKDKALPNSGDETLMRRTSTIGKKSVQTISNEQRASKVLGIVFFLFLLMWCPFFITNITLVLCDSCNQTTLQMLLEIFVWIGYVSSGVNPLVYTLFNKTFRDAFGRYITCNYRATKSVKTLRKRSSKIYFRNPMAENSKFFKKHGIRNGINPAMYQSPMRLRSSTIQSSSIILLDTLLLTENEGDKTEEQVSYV
Sequence of 5-HT1B receptor (P28222 whole entry): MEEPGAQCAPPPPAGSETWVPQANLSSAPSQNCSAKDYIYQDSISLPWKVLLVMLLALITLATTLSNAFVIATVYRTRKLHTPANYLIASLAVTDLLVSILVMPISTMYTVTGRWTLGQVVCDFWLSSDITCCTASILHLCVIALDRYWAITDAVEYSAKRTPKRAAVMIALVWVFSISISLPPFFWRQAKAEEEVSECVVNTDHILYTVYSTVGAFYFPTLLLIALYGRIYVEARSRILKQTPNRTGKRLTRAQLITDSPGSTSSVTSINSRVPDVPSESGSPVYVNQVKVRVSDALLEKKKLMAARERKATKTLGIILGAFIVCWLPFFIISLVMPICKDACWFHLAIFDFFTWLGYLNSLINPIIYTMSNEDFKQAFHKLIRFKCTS
Sequence of 5-HT7 receptor (P34969 whole entry): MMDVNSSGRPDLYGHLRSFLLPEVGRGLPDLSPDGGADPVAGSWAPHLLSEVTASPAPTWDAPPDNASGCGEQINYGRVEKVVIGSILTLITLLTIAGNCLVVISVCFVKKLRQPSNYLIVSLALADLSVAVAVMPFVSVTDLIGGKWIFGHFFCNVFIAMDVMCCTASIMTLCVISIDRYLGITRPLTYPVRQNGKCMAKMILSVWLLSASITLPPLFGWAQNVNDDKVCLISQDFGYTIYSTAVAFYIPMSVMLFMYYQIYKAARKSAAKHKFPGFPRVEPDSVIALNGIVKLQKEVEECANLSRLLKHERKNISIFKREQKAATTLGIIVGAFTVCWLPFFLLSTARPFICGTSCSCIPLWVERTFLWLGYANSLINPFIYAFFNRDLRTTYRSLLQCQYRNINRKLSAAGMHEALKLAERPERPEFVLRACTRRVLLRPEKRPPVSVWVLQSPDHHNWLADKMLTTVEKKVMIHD
Sequence of 5-HT6 receptor (P50406 whole entry): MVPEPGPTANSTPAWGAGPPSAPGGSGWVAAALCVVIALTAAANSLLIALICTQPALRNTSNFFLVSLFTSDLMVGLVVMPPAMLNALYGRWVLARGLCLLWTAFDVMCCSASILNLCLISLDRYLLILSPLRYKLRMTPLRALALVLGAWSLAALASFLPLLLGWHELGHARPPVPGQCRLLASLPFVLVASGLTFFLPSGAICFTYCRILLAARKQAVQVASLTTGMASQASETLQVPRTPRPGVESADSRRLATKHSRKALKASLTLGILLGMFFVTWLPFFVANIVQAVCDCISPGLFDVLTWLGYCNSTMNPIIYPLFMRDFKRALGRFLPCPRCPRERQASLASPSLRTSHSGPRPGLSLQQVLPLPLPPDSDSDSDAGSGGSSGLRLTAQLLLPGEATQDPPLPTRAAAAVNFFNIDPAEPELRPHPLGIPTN

For the compound `CN1CCC[C@@H]1Cc1c[nH]c2ccc(CCS(=O)(=O)c3ccccc3)cc12` [Eletriptan, 3-(N-methyl-2(R)-pyrrolidinylmethyl)-5-(2-phenylsulphonylethyl)-1H-indole], the affinity result at 5-HT1B receptor is reported as “high affinity”; at 5-HT1D receptor, “high affinity”; at 5-HT1F receptor, “high affinity”; on 5-HT1A receptor, “modest affinity”; on 5-HT1E receptor it was “modest affinity”; at 5-HT2B receptor, “modest affinity”. Besides, the affinity result was “modest affinity” on 5-HT7 receptor; “little or no affinity” at 5-HT2A receptor; “little or no affinity” at 5-HT2C receptor; “little or no affinity” in the data set on 5-HT3 receptor; “little or no affinity” on 5-HT4 receptor; “little or no affinity” on 5-HT5A receptor. On 5-HT6 receptor, the affinity entry is given as “little or no affinity”. The “affinity or pharmacological activity” value (in [1]; in [2]; in [3]; in [4]; in data set [5]; in the data set with muscarinic receptors) was “no significant affinity or pharmacological activity” throughout. Further, the “affinity or pharmacological activity” value with opioid receptors is given as “no significant affinity or pharmacological activity”.
